# Data from patent EP1965829B1, “ALTERNATIVE OXIDASE AND USES THEREOF” (Tampereen yliopisto, priority 2005, dated 2007).
# Experiments:
# [1] = tested on: Flp-In™ T-REx™-293 cells; experiment: Succinate oxidation by digitonin-permeabilized cells, Clark oxygen electrode; format: cell-based, human; conditions: AOX-induced cells
# [2] = tested on: Drosophila mitochondria; format: biochemical, Drosophila melanogaster
# [3] = tested on: Flp-In™ T-REx™-293 cells; experiment: Respiration of digitonin-permeabilized transduced or transfected cells; format: cell-based, human; conditions: 10 µM n-propyl gallate
smiles,measurement,setting,value
CCCOC(=O)c1cc(O)c(O)c(O)c1 [n-propyl gallate],inhibition of cyanide-resistant succinate oxidation,[1]; 100 µM propyl gallate added after cyanide,fully inhibited
same,inhibition of oxygen uptake,[1]; propyl gallate in the absence of cyanide,5%
same,effect of AOX inhibitors on respiration,[2],only a small effect
same,sensitivity of residual cyanide-insensitive respiratory activity to AOX inhibitors,[2],sensitive
same,inhibition of residual respiration in the presence of cyanide,[3]; pWPI-AOX-transduced cells,completely inhibited
same,inhibition of respiration in the presence of cyanide,[3]; pcDNA5-AOX-transfected cells,almost completely inhibited
